{
  "source": "patent EP4636093A1",
  "about": "“TARGETING MAPK-ERK PATHWAY FOR ENHANCING NUCLEIC ACID DELIVERY” (priority 2024, dated 2025)",
  "key": {"[1]": {"test_system": "T cells", "type": "cell-based, Human", "conditions": "for increase in CAR expression: with vs without 400 nM deucravacitinib"}, "[2]": {"test_system": "human T lymphocytes", "type": "cell-based", "conditions": "AAV6 (GFP); 20 µM Vx-11e compared to untreated cells; average, three donors"}},
  "note": "Like-named read-outs stand apart in the source and are kept apart here.",
  "data": [
    {"compound": "Deucravacitinib", "values": [
      {"measurement": "increase in CAR expression", "setting": "[1]; CD4-LV, CD4 T cells, average, three donors", "value": "up to 1.7 fold"},
      {"measurement": "increase in CAR expression", "setting": "[1]; CD8-LV, CD8 T cells, average, three donors", "value": "≤ 3.6", "unit": "fold"},
      {"measurement": "optimal dose", "setting": "[1]; treatment of cells for 24 hours, CAR expression after LV transduction (one donor)", "value": 400, "unit": "nM"}
    ]},
    {"compound": "Cc1cnc(Nc2ccc(F)cc2Cl)nc1-c1c[nH]c(C(=O)N[C@H](CO)c2cccc(Cl)c2)c1", "note": "[VX-11e]", "values": [
      {"measurement": "optimal doses", "setting": "[1]", "value": 20, "unit": "µM"},
      {"measurement": "VSV-LV mediated transduction efficiency increase", "setting": "[1]; VSV-LV, 20 µM VX-11e, average, three donors", "value": "up to 1.8 fold"},
      {"measurement": "AAV6 mediated transduction efficiency increase", "setting": "[2]", "value": "up to 2.1 fold"}
    ]},
    {"compound": "CC(C)Nc1cc(-c2c[nH]c(C(=O)N[C@H](CO)c3cccc(Cl)c3)c2)c(Cl)cn1", "note": "[ulixertinib]", "values": [
      {"measurement": "optimal doses", "setting": "[1]", "value": 5, "unit": "µM"}
    ]}
  ]
}
